Data on 4 molecules can be found in ChEMBL document CHEMBL1158905, “Two New Bioactive Cyclic Peroxides from the Marine Sponge Plakortis angulospiculatus” (J Nat Prod, 1990).

For one test, the system named is Aspergillus nidulans. Briefly: Antimicrobial activity against Aspergillus nidulans by at 20 ug/disk by disk diffusion method. It counts as functional, organism-based. Background: A growth-free zone around the sample is the usual read-out of agar diffusion tests.
The test system of a further test is Escherichia coli. Briefly: Antimicrobial activity against Escherichia coli by at 20 ug/disk by disk diffusion method. The test is classed as functional, organism-based.
For a further test, the system named is Bacillus subtilis. The test is described as follows: Antimicrobial activity against Bacillus subtilis by at 20 ug/disk by disk diffusion method. It counts as functional, organism-based.
For a further test, the system named is Candida albicans. Briefly: Antimicrobial activity against Candida albicans ATCC 44506 by broth microdilution method. The test is classed as functional.
In another test the test system is P388. The test is described as follows: Cytotoxicity against mouse P388 cells. The test is classed as functional, cell-based.

Values after ≈ are worked out from the molar mass of the structure shown. Active and inactive are the calls of the source. A value given as a limit tells only on which side of the number the result lay.

For orientation: MIC means the smallest concentration in the dilution series that meets the test's criterion for growth inhibition. A low value points to a more susceptible organism. As a reminder, the IC50 is the point on the concentration scale where inhibition reaches its midpoint. High values mean a need for much substance, low ones inhibition by little substance. Consider `CC/C=C/C(CC)CC(C)CC1(CC)C=C(CC)C(CC(=O)OC)OO1` (stereo not given), for which the outcome with Aspergillus nidulans, in the test with Escherichia coli and in the test on Bacillus subtilis was inactive. Moreover, the MIC against Candida albicans is above 50 µg/mL. This molecule also gave an IC50 in the test on P388 of 0.9 µg/mL (≈ 2.46 µM).
For the molecule `CC/C=C/C(CC)CC(C)CC1(CC)C=C(CC)C(CC(=O)O)OO1` (stereo not given), the result in the test on Aspergillus nidulans and with Bacillus subtilis was Active. In addition, the result in the test with Escherichia coli was inactive. Moreover, the MIC against Candida albicans came out at 1.6 µg/mL (≈ 4.54 µM). In addition, in the test with P388, the IC50 was found to be 0.3 µg/mL (≈ 0.851 µM).
Turning to `CCCCC(CC)CC(C)CC1(CC)C=C(CC)C(CC(=O)O)OO1` (stereo not given), the outcome in the test with Aspergillus nidulans and with Bacillus subtilis was Active. The result in the test with Escherichia coli was inactive. It took 1.6 µg/mL (≈ 4.51 µM) to inhibit growth with Candida albicans (MIC). The same molecule came in with an IC50 in the test with P388 of 0.2 µg/mL (≈ 0.564 µM).
With `CCCCC(CC)CC(C)CC1(CC)C=C(CC)C(CC(=O)OC)OO1` (stereo not given), the result in the test with Aspergillus nidulans, with Escherichia coli and in the test with Bacillus subtilis was inactive. Besides, in the test with Candida albicans, the MIC is above 50 µg/mL. The molecule further came in with an IC50 with P388 of 0.2 µg/mL (≈ 0.543 µM).
